From patent publication EP4818176A1, “TETRACYCLIC DERIVATIVE INHIBITOR, AND PREPARATION METHOD AND USE THEREFOR” (Shanghai Hansoh Biomedical Co., Ltd., priority 2023, dated 2025)
Where two headings read alike, the source gives them in different places.

What was measured:
[1] = biological target: T1, PRMT5/MEP50-MTA protein complex (Homo sapiens, UniProt O14744); experiment: Thermal shift assay: thermal stability (melting temperature) of PRMT5/MEP50-MTA protein complex; format: binding; conditions: final compound concentration 8 µM; 2 µM PRMT5/MEP50, 2 µM MTA; Tm minus Tm of DMSO vehicle control
T1 construct: purchased Viva Biotech
Excerpt: Test Example 1: Determination of the ability of the compounds of the present invention to improve the thermal stability (melting temperature) of the PRMT5/MEP50-MTA protein complex.
1 Experimental objective: The objective of this test example is to determine the ability of the compound to improve the thermal stability of the PRMT5/MEP50-MTA protein complex, resulting in an increase in the protein melting temperature. 2 Experimental instruments: Quantitative PCR instrument (Quantstudio6 Flex) was purchased from Life Technologies; pipettes were purchased from Eppendorf or Rainin. 3 Experimental reagents and consumables: PRMT5/MEP50 protein was prepared by Viva Biotech; HEPES was purchased from Thermo Fisher Scientific (Cat. No. 15630080); DTT was purchased from Sigma (Cat. No. 43816-10ml); sodium chloride was purchased from Invitrogen (Cat. No. AM9760G); Protein Thermal Shift™ Dye Kit was purchased from Thermo Fisher Scientific (Cat. No. 4461146); methylthioadenosine (MTA) was purchased from Sigma (Cat. No. D5011). 4 Experimental method: In this experiment, the thermal shift method was used to measure the change in the melting temperature (Tm) of the PRMT5/MEP50-MTA protein complex before and after compound binding, thereby characterising the ability of the compound to improve the thermal stability of the PRMT5/MEP50-MTA protein complex. A solution containing 50 mM HEPES, 10 mM DTT, 2 µM MTA, SYPRO Orange and 250 mM NaCl was prepared as the experimental buffer. Human PRMT5/MEP50 protein was added to a final concentration of 2 µM, and the mixture was incubated at room temperature for 30 minutes. The above reaction mixture was aliquoted into 8-strip PCR tubes at 19.5 µL per tube. Then 0.5 µL of test compound or DMSO was added to each tube, providing a total reaction volume of 20 µL and a final compound concentration of 8 µM. 2.5% DMSO was set as the vehicle control. After incubation at room temperature for 10 minutes, the PCR tubes were placed in a PCR instrument, and the melt curve function was selected to measure the melting temperature of the PRMT5/MEP50-MTA protein complex in different treatment groups (heated from 25°C to 95°C, 0.03°C/s). 5 Experimental data processing method: The experimental data files from the PCR instrument were imported into the thermal shift software to obtain the melting temperature (Tm) for each treatment group.

HCT116 wild-type cells = experiment: Cell proliferation inhibition (CellTiter-Glo), HCT116 wild-type cells; format: cell-based; conditions: Homo sapiens
Excerpt: (§1) Test Example 2: Determination of the inhibitory effect of the compounds of the present invention on the proliferation activity of HCT116 and MTAP Knockout HCT116 cells.
(§2) 1 Experimental objective: The objective of this test example is to determine the inhibitory effect of the compound on the proliferation activity of HCT116 wild-type and HCT116 MTAP knockout cells. 2 Experimental instruments: Centrifuge (Eppendorf 5810R); microplate reader (BioTek Synergy H1 or PerkinElmer Envision); pipette (Eppendorf or Rainin). 3 Experimental reagents: HCT116 and MTAP Knockout HCT116 cells were purchased from Nanjing Cobioer; Cell Titer-Glo was purchased from Promega (Cat. No. G7573); McCoy'5A was purchased from Gibco (Cat. No. 12330031); FBS was purchased from Gibco (Cat. No. 10091148); PBS was purchased from Gibco (Cat. No. 10010023); trypsin was purchased from Gibco (Cat. No. 25200056); cell culture plates were purchased from Corning (Cat. No. 3610). 4 Experimental method: HCT116 and MTAP Knockout HCT116 cells were cultured in McCoy'5A medium containing 10% FBS until an appropriate cell density was reached. The cells were then collected and adjusted to a suitable concentration using complete medium. The cell suspension was seeded into a 96-well plate at 90 µL per well and allowed to adhere overnight in a 37°C, 5% CO2 incubator. Compound solutions of various concentrations were prepared using DMSO and culture medium, with a vehicle control set. The compound solutions were added to the 96-well plate at 10 µL per well, and the plate was incubated in a 37°C, 5% CO2 incubator for an additional 72-240 hours. After incubation, CellTiter-Glo solution was added, and the mixture was mixed uniformly by shaking, followed by incubation in the dark for 10 to 30 minutes. Luminescence was measured using a Synergy H1 or Envision microplate reader. 5 Experimental data processing method: The inhibition rate was calculated using the luminescence signal values, and the concentrations along with the inhibition rates were subjected to non-linear regression curve fitting using Graphpad Prism software to obtain the IC50 values.

[2] = system: MTAP Knockout HCT116 cells; experiment: Cell proliferation inhibition (CellTiter-Glo), HCT116 MTAP knockout cells; format: cell-based; conditions: for Selectivity: HCT116 IC50 versus MTAP Knockout HCT116 IC50; for IC50: Homo sapiens
Excerpt: as §1, §2

[3] = HCT-116, read-out: MTAP Knockout HCT116 IC50
[4] = HCT-116, HCT116 wild-type cells, proliferation inhibition, Cell Titer-Glo, read-out: HCT116 IC50
[5] = HCT-116, MTAP Knockout HCT116 cells, proliferation inhibition, Cell Titer-Glo, read-out: MTAP Knockout HCT116 IC50

T1 sequence (O14744 whole entry): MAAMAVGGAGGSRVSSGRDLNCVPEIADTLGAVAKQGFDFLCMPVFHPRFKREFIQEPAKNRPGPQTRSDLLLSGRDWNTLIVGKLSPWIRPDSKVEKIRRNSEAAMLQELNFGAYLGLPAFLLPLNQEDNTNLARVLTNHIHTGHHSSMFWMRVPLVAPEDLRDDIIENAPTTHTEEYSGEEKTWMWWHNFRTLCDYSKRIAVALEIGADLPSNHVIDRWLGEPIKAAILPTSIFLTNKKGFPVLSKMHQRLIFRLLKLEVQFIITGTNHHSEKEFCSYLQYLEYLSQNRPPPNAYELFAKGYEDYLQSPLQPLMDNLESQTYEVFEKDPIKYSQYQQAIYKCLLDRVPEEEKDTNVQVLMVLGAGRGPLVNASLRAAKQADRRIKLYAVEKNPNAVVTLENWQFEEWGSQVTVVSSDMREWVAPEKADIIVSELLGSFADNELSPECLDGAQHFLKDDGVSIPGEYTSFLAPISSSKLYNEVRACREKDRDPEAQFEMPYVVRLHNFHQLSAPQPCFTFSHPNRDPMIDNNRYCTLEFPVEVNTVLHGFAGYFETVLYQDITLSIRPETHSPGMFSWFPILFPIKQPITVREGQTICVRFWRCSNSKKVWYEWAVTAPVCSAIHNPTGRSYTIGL
T1 sequence (Q9BQA1 whole entry partner): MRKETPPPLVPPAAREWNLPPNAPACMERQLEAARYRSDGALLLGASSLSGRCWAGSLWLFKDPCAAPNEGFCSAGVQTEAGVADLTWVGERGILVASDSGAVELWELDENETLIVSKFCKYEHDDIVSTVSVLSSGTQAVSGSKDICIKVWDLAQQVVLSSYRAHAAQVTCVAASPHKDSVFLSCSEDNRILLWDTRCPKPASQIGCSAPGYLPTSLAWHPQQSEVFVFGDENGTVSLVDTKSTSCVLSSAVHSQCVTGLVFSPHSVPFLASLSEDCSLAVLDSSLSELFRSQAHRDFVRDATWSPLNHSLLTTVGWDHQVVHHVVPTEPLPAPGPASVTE

Row | SMILES | ΔTm at 8 µM [1] [°C] | IC50 (HCT116 wild-type cells; HCT-116, read-out: HCT116 IC50) [µM] | Selectivity [2] | IC50 [2, 3] [µM] | IC50 (HCT116 wild-type cells; [4]) [µM] | IC50 [2, 5] [µM]
1 | Cn1ncc2c(N)nc3cc4c(cc3c21)C(=O)N(Cc1ccc(-c2c(F)cccc2F)cn1)CCCOC4 [Example 427, 4-Amino-12-((5-(2,6-difluorophenyl)pyridin-2-yl)methyl)-1-methyl-1,7,9,10,11,12-hexahydro-13H-[1,5]oxazolo[7,8-g]pyrazolo[4,3-c]quinolin-13-one] | 13.7 | 0.027 | 30 | 0.0009 |  | 
2 | Nc1nc2cc3c(cc2n2cncc12)C(=O)N(Cc1ccc(C24CC(C2)C4)cn1)CCCOC3 [Example 484, 4-Amino-12-((5-(bicyclo[1.1.1]pentan-1-yl)pyridin-2-yl)methyl)-9,10,11,12-tetrahydroimidazo[1,5-a][1,5]oxazolo[8,7-g]quinoxalin-13(7H)-one] | 11.9 |  | 38 |  | 0.379 | 0.0099
3 | NC1=NC2C=C3CCCCCN(Cc4ccc(C(F)(F)F)cn4)C(=O)C3=CC2n2cncc21 (stereo not shown) [Example 77, 4-Amino-12-((5-(trifluoromethyl)pyridin-2-yl)methyl)-5a,7,8,9,10,11,12,14a-octahydro-13H-azonino[4,3-g]imidazo[1,5-a]quinoxalin-13-one] | 11 |  | 20 |  | 0.236 | 0.012
4 | Nc1nc2cc3c(cc2n2cncc12)C(=O)N(Cc1ccc(-c2c(F)cncc2F)cn1)CCC/C=C\3 [Example 419, (Z)-4-Amino-12-(3',5'-difluoro-[3,4'-bipyridin]-6-yl)methyl-9,10,11,12-tetrahydro-13H-azonino[4,3-g]imidazo[1,5-a]quinoxalin-13-one] | 12.7 |  | 14 |  | 0.051 | 0.0036
5 | Cn1ncc2c(N)nc3cc4c(cc3c21)C(=O)N(C1COc2cc(C(F)(F)F)ccc21)CCCOC4 (stereo not shown) [Example 270, 4-Amino-1-methyl-12-(6-(trifluoromethyl)-2,3-dihydrobenzofuran-3-yl)-1,7,9,10,11,12-hexahydro-13H-[1,5]oxazonino[7,8-g]pyrazolo[4,3-c]quinolin-13-one] | 10.8 | 2.45 | 147 | 0.017 |  | 
6 | Nc1nc2cc3c(cc2n2cncc12)C(=O)N([C@@H]1COc2cc(C(F)(F)F)ccc21)CCC/C=C\3 (stereo in doubt) [Example 164-P1, rel-(R, Z)-4-amino-12-(6-(trifluoromethyl)-2,3-dihydrobenzofuran-3-yl)-9,10,11,12-tetrahydro-13H-azo[4,3-g]imidazo[1,5-a]quinoxalin-13-one] | 11.2 |  | 40 |  | 0.556 | 0.014
7 | Nc1nc2cc3c(cc2n2cncc12)C(=O)N(Cc1ccc(C(F)(F)F)nn1)CC/C=C\3 [Example 418, (Z)-4-Amino-12-(6-(trifluoromethyl)pyridazin-3-yl)methyl-9,10,11,12-tetrahydro-13H-azocino[4,3-g]imidazo[1,5-a]quinoxalin-13-one] | 11.5 | 1.09 | 54 | 0.02 |  | 
8 | Nc1nc2cc3c(cc2c2c1COC2)C(=O)N(Cc1ccc(C24CC(C2)C4)cn1)CCCOC3 [Example 510, 4-Amino-12-((5-(bicyclo[1.1.1]pentan-1-yl)pyridin-2-yl)methyl)-3,7,9,10,11,12-hexahydrofuro[3,4-c][1,5]oxazolo[7,8-g]quinolin-13(1H)-one] | 11.3 | 0.771 | 66 | 0.012 |  | 
9 | CC1CCCN(Cc2ccc(C(F)(F)F)cn2)C(=O)c2cc3c(cc2C1)nc(N)c1cncn13 (racemic) [Example 514, 4-Amino-8-methyl-12-((5-(trifluoromethyl)pyridin-2-yl)methyl)-7,8,9,10,11,12-hexahydro-13H-azo[4,3-g]imidazo[1,5-a]quinoxalin-13-one] | 10.9 | 0.807 | 55 | 0.015 |  | 
10 | CC1OCc2c1c(N)nc1cc3c(cc21)C(=O)N(Cc1ccc(C(F)(F)F)cn1)CCCOC3 (stereo not shown) [Example 184, 4-Amino-3-methyl-12-((5-(trifluoromethyl)pyridin-2-yl)methyl)-3,7,9,10,11,12-hexahydrofuro[3,4-c][1,5]oxazolo [7,8-g]quinoxalin-13(1H)-one] | 11.1 | 2.29 | 108 | 0.021 |  | 
11 | CC1OCc2c1c(N)nc1cc3c(cc21)C(=O)N(Cc1ccc(S(F)(F)(F)(F)F)cn1)CCCOC3 (racemic) [Example 437, 4-Amino-3-methyl-12-((5-(pentafluorosulphanyl)pyridin-2-yl)methyl)-3,7,9,10,11,12-hexahydrofuro[3,4-c][1,5]oxazolo[7,8-g]quinolin-13(1H)-one] | 12.2 | 0.191 | 64 | 0.003 |  | 
12 | Nc1nc2cc3c(cc2n2cncc12)C(=O)N(C1COCc2nc(C(F)(F)F)ccc21)CC/C=C\3 (racemic) [Example 311] | 11.1 | 1.74 | 77 | 0.023 |  | 
13 | C[C@H]1CCCN(Cc2ccc(C(F)(F)F)cn2)C(=O)c2cc3c(cc2C1)nc(N)c1cncn13 [Example 514-P2, (S)-4-amino-8-methyl-12-((5-(trifluoromethyl)pyridin-2-yl)methyl)-7,8,9,10,11,12-hexahydro-13H-azo[4,3-g]imidazo[1,5-a]quinoxalin-13-one] | 11.6 | 1 | 71 | 0.014 |  | 
14 | Nc1nc2cc3c(cc2n2cncc12)C(=O)N(C1COCc2nc(C(F)(F)F)ccc21)CC/C=C\3 (stereo not shown) [Example 157, (Z)-4-Amino-11-(2-(trifluoromethyl)-5,8-dihydro-6H-pyrano[3,4-b]pyridin-5-yl)-10,11-dihydroazocino[4,3-g]imidazo[1,5-a]quinoxalin-12(9H)-one] | 11.1 |  | 77 |  | 1.74 | 0.023
15 | Nc1nc2cc3c(cc2c2c1COC2)C(=O)N(Cc1ccc(C(F)(F)F)cn1)CCC/C=C\3 [Example 173, (Z)-4-Amino-12-((5-(trifluoromethyl)pyridin-2-yl)methyl)-1,3,9,10,11,12-hexahydro-13H-azo[3,4-g]furo[3,4-c]quinolin-13-one] | 11.6 |  | 80 |  | 0.279 | 0.0035
16 | CC1OCc2c1c(N)nc1cc3c(cc21)C(=O)N(Cc1ccc(-c2c(F)cccc2F)cn1)CCCNC3 (stereo not shown) [Example 435, 4-Amino-12-((5-(2,6-difluorophenyl)pyridin-2-yl)methyl)-3-methyl-1,3,7,8,9,10,11,12-octahydro-13H-[1,5]diamine[7,8-g]furo[3,4-c]quinolin-13-one] | 12.8 | 0.078 | 41 | 0.0019 |  | 
